Results published in patent US10195189B2, “2-phenethenyltetrahydro isoquinolines useful as anti-HIV compounds” (priority 2014, dated 2019).

Test system: HIV-1 NL4-3 viral clone expressing Renilla luciferase
Test: microbe, parasite or virus in culture
Type: cell-based
Conditions: Human immunodeficiency virus 1, NL43, MT2, 96 h
Protocol: Protocol for MT-2 Spread Assay
The present assay was used to screen candidate antiviral compounds by quantification of virus spread and production over several rounds of infection in vitro. MT-2, a HIV-1 permissive human T-cell line, was seeded in microtiter plates and was simultaneously treated with serially diluted compound and inoculated with a HIV-1 NL4-3 viral clone engineered to express Renilla luciferase in place of Net Following treatment, the culture was incubated for 96 hours. After the incubation, media was collected and used to estimate relative infectivity on the indicator cell line, TZM-bl. Additionally, viral spread was quantified by measuring luciferase activity via a commercially available luciferase substrate. In parallel, MT-2 cells were seeded and inoculated with mock virus in the presence of serially diluted compound. Compound toxicity was quantified 96 hours after treatment with AlamarBlue.
MT-2 (NIH Aids reagent program 237) cells were grown and maintained in an incubator at 37° C. with 5% CO2 using a basal medium of RPMI-1640 supplemented with 10% FBS. Cells were seeded in 100 μl at 2×10^4 cells/well in white walled 96-well microtiter plates. Candidate compounds were 3-fold serially diluted in the appropriate solvent. Solvent without compound was used as a no drug reference. Cells were inoculated at a multiplicity of 0.027 with an HIV-1 NL4-3 virus stock engineered to express Renilla luciferase in place of Net Diluted virus stock was first added to serially diluted compound. Compound and virus were delivered to cells in an equal volume (100 μl) and treated cultures were returned to the incubator for 96 hours. In parallel, plates for cytotoxicity estimates were prepared in the same way except cells were plated in clear walled 96-well microtiter plates and were mock infected.
At 96 hours post infection, 100 μl virus containing culture supernatant was collected from the treated and infected cultures and serially diluted in DMEM supplemented with 10% FBS, 1% sodium pyruvate, and 20 μg/ml DEAE dextran. One day prior, TZM-bl (ATCC PTA-5659) were cultured in basal medium of DMEM supplemented with 10% FBS and 1% sodium pyruvate and seeded at 7.5×10^3 cells/well in black walled 96-well microtiter plates. Diluted virus containing culture supernatant was transferred to TZM-bl cultures and incubated for 48 hours at 37° C. with 5% CO2. Infected TZM-bl cultures were fixed for 5 minutes with a 1% formaldehyde/0.2% gluteraldehyde/PBS solution then washed three times with PBS. Fixed cultures were incubated at 37° C. for 25 minutes with a 200 μg/ml MUG (4-Methylumbelliferyl β-D-[…])/DMEM solution. The reaction was stopped with an equal volume of 1M sodium carbonate and read at 360, 449 nm on fluorescence plate reader (Biotek).
At 96 hours post infection, 100 μl of culture supernatant was removed from the treated and infected cultures and EnduRen live cell substrate (Promega) was added at a final concentration 1.3 μg/ml. Cells were incubated for 1.5 hours at 37° C. with 5% CO2 then read on a luminescence plate reader (Biotek).
For all assays, data was imported into Accelrys Assay Explorer 3.3. In Assay Explorer, % inhibition (antiviral or cytotoxicity) was calculated using the solvent control as a reference by the following equation: 1−(SignalCompound/SignalReference). The % Inhibition and compound concentration data was fitted using the following 4-parameter logistic model (Assay Explorer model 42):
[formula] where X is compound concentration, Y is % inhibition, D is the maximum % Inhibition (constrained to 100%), C is IC50 value or inflection point, B is the hill slope, and A is the minimum % inhibition (constrained to 0%). The IC50 value is reported as the EC50 or CC50 depending on the assay endpoint. EC50 represents the effective concentration at which virus replication is inhibited by 50 percent. CC50 represents the concentration that results in the death of 50 percent of the host cells. […]

| SMILES | EC50 [nM] |
| --- | --- |
| COc1cc2c(cc1OCc1ccccc1)CCNC2/C=C/c1ccc2cccnc2c1 (stereo not drawn) [DL, (E)-7-(2-(6-(benzyloxy)-7-methoxy-1,2,3,4-tetrahydroisoquinolin-1-yl)vinyl)quinoline] | 96.9 |
| COc1cc2c(cc1OCc1ccccc1)CCNC2/C=C/c1ccc(-n2ccnc2C)cc1 (stereo not shown) [DM, (E)-6-(benzyloxy)-7-methoxy-1-(4-(2-methyl-1H-imidazol-1-yl)styryl)-1,2,3,4-tetrahydroisoquinoline] | 1520 |
| COc1cccc(-c2ncc(/C=C/C3NCCc4cc(OCc5ccccc5)c(OC)cc43)cn2)c1 (stereo not shown) [DN] | 2400 |
| CCN1CCN(c2ccc(/C=C/C3NCCc4cc(OCc5ccccc5)c(OC)cc43)cc2)CC1 (stereo not shown) [DO, (E)-6-(benzyloxy)-1-(4-(4-ethylpyrazin-1-yl)styryl)-7-methoxy-1,2,3,4-tetrahydroisoquinoline] | 496 |
| COc1cc2c(cc1OCc1ccccc1)CCNC2/C=C/c1cn(C)c2ncccc12 (stereo not shown) [DP] | 15 |
| COc1cc2c(cc1OCc1ccccc1)CCNC2/C=C/c1cccc(-c2ccncc2)c1 (stereo not shown) [DQ, 6-(Benzyloxy)-7-methoxy-1-[(E)-2-[3-(pyridin-4-yl)phenyl]ethenyl]-1,2,3,4-tetrahydroisoquinoline] | 126 |
| COc1cc2c(cc1OCc1ccccc1)CCNC2/C=C/c1cscn1 (stereo not shown) [DR, 6-(Benzyloxy)-7-methoxy-1-[(E)-2-(1,3-thiazol-4-yl)ethenyl]-1,2,3,4-tetrahydroisoquinolin] | 4820 |
| COc1cc2c(cc1OCc1ccccc1)CCNC2/C=C/c1ccc(-c2cncnc2)cc1 (stereo not shown) [DS, 6-(Benzyloxy)-7-methoxy-1-[(E)-2-[4-(pyrimidin-5-yl)phenyl]ethenyl]-1,2,3,4-tetrahydroisoquinoline] | 116 |
| COc1cc2c(cc1OCc1ccccc1)CCNC2/C=C/c1ccc(-n2cncn2)cc1 (stereo not shown) [DT, 6-(Benzyloxy)-7-methoxy-1-[(E)-2-[4-(1H-1,2,4-triazol-1-yl)phenyl]ethenyl]-1,2,3,4-tetrahydroisoquinoline] | 157 |
| COc1cc2c(cc1OCc1ccccc1)CCNC2/C=C/c1cc2ccccc2s1 (stereo not shown) [DU, 1-[(E)-2-(1-Benzothiophen-2-yl)ethenyl]-6-(benzyloxy)-7-methoxy-1,2,3,4-tetrahydroisoquinoline] | 10100 |
| COc1cc2c(cc1OCc1ccccc1)CCNC2/C=C/c1nccs1 (stereo not shown) [DV, 6-(Benzyloxy)-7-methoxy-1-[(E)-2-(1,3-thiazol-2-yl)ethenyl]-1,2,3,4-tetrahydroisoquinoline] | 29500 |
| COc1cc2c(cc1OCc1ccccc1)CCNC2/C=C/c1ccc(N2CCN(C)CC2)cc1 (stereo not shown) [DW, 6-(Benzyloxy)-7-methoxy-1-[(E)-2-[4-(4-methylpiperazin-1-yl)phenyl]ethenyl]-1,2,3,4-tetrahydroisoquinoline] | 1240 |
| COc1cc2c(cc1OCc1ccccc1)CCNC2/C=C/c1ccccc1N1CCCCC1 (stereo not shown) [DX, 6-(Benzyloxy)-7-methoxy-1-[(E)-2-[2-(piperidin-1-yl)phenyl]ethenyl]-1,2,3,4-tetrahydroisoquinoline] | 4200 |
| COc1cc2c(cc1OCc1ccccc1)CCNC2/C=C/c1scnc1C (stereo not shown) [DY, 5-[(E)-2-(6-Benzyloxy-7-methoxy-1,2,3,4-tetrahydroisoquinolin-1-yl)vinyl]-4-methyl-thiazole] | 5510 |
| COc1cc2c(cc1OCc1ccccc1)CCNC2/C=C/c1ccc(-c2ccccn2)cc1 (stereo not shown) [DZ, 6-Benzyloxy-7-methoxy-1-[(E)-2-[4-(2-pyridyl)phenyl]vinyl]-1,2,3,4-tetrahydroisoquinoline] | 650 |
| COc1cc2c(cc1OCc1ccccc1)CCNC2/C=C/c1ccc(N2CCCCC2)cc1 (stereo not shown) [EA, 6-Benzyloxy-7-methoxy-1-[(E)-2-[4-(1-piperidyl)phenyl]vinyl]-1,2,3,4-tetrahydroisoquinoline] | 2100 |

| SMILES | EC50 [nM] |
| --- | --- |
| COc1cc2occc2cc1/C=C/C1NCCc2cc(OCc3ccccc3)c(OC)cc21 (stereo not shown) [EB, 6-Benzyloxy-7-methoxy-1-[(E)-2-(6-methoxybenzofuran-5-yl)vinyl]-1,2,3,4-tetrahydroisoquinoline] | 300 |
| COc1cc2c(cc1OCc1ccccc1)CCNC2/C=C/c1cccc(-c2ncco2)c1 (stereo not shown) [EC, 2-[3-[(E)-2-(6-Benzyloxy-7-methoxy-1,2,3,4-tetrahydroisoquinolin-1-yl)vinyl]phenyl]oxazole] | 930 |
| COc1cc2c(cc1OCc1ccccc1)CCNC2/C=C/c1ccc(-c2ncco2)cc1 (stereo not shown) [ED, 2-[4-[(E)-2-(6-Benzyloxy-7-methoxy-1,2,3,4-tetrahydroisoquinolin-1-yl)vinyl]phenyl]oxazole] | 580 |
| CCOC(=O)c1coc(-c2ccc(/C=C/C3NCCc4cc(OCc5ccccc5)c(OC)cc43)cc2)n1 (stereo not shown) [EE, Ethyl 2-[4-[(E)-2-(6-benzyloxy-7-methoxy-1,2,3,4-tetrahydroisoquinolin-1-yl)vinyl]phenyl]oxazole-4-carboxylate] | 990 |
| CCOC(=O)c1coc(-c2cccc(/C=C/C3NCCc4cc(OCc5ccccc5)c(OC)cc43)c2)n1 (stereo not shown) [EF, Ethyl 2-[3-[(E)-2-(6-benzyloxy-7-methoxy-1,2,3,4-tetrahydroisoquinolin-1-yl)vinyl]phenyl]oxazole-4-carboxylate] | 1000 |
| COc1cc2c(cc1OCc1ccccc1)CCNC2/C=C/c1ccc2c(c1)OCC2 (stereo not shown) [EG, 6-Benzyloxy-1-[(E)-2-(2,3-dihydrobenzofuran-6-yl)vinyl]-7-methoxy-1,2,3,4-tetrahydroisoquinoline] | 900 |
| COc1cc(OC)c(/C=C/C2NCCc3cc(OCc4ccccc4)c(OC)cc32)cc1C (stereo not shown) [EH, 6-Benzyloxy-1-[(E)-2-(2,4-dimethoxy-5-methyl-phenyl)vinyl]-7-methoxy-1,2,3,4-tetrahydroisoquinolin] | 66 |
| COc1ccc(/C=C/C2NCCc3cc(OCc4ccccc4)c(OC)cc32)cc1C (stereo not shown) [EI, 6-Benzyloxy-7-methoxy-1-[(E)-2-(4-methoxy-3-methyl-phenyl)vinyl]-1,2,3,4-tetrahydroisoquinoline] | 340 |
| COc1cccc(/C=C/C2NCCc3cc(OCc4ccccc4)c(OC)cc32)c1 (stereo not shown) [EJ, 6-Benzyloxy-7-methoxy-1-[(E)-2-(3-methoxyphenyl)vinyl]-1,2,3,4-tetrahydroisoquinoline] | 2980 |
| COc1ccc(OC)c(/C=C/C2NCCc3cc(OCc4ccccc4)c(OC)cc32)c1 (stereo not shown) [EK, 6-Benzyloxy-1-[(E)-2-(2,5-dimethoxyphenyl)vinyl]-7-methoxy-1,2,3,4-tetrahydroisoquinoline] | 380 |
| COc1cc2c(cc1OCc1ccccc1)CCNC2/C=C/c1ccc(OC)c(C)c1C (stereo not shown) [EL, 6-Benzyloxy-7-methoxy-1-[(E)-2-(4-methoxy-2,3-dimethyl-phenyl)vinyl]-1,2,3,4-tetrahydroisoquinoline] | 150 |
| COc1ccc(/C=C/C2NCCc3cc(OCc4ccccc4)c(OC)cc32)cc1CN1CCCCC1 (stereo not shown) [EM, 6-Benzyloxy-7-methoxy-1-[(E)-2-[4-methoxy-3-(1-piperidylmethyl)phenyl]vinyl]-1,2,3,4-tetrahydroisoquinoline] | 320 |
| COc1ccc(/C=C/C2NCCc3cc(OCc4ccccc4)c(OC)cc32)cc1Cn1ccnc1C (stereo not shown) [EN, 6-Benzyloxy-7-methoxy-1-[(E)-2-[4-methoxy-3-[(2-methylimidazol-1-yl)methyl]phenyl]vinyl]-1,2,3,4-tetrahydroisoquinolin] | 189 |
| COc1ccc(/C=C/C2NCCc3cc(OCc4ccccc4)c(OC)cc32)cc1COCC(F)(F)F (stereo not shown) [EO, 6-Benzyloxy-7-methoxy-1-[(E)-2-[4-methoxy-3-(2,2,2-trifluoroethoxymethyl)phenyl]vinyl]-1,2,3,4-tetrahydroisoquinoline] | 504 |
| COc1cc2c(cc1OCc1ccccc1)CCNC2/C=C/c1ccc(C(=O)O)cc1 (stereo not shown) [EQ, 4-[(E)-2-(6-benzyloxy-7-methoxy-1,2,3,4-tetrahydroisoquinolin-1-yl)vinyl]benzoic acid] | 7040 |
